Results as given in PMC6496959 (Journal of medicinal chemistry, 2018).

Experiments:
MDCK cells = settings: minimal change in cell morphology after 48 h incubation
[1] = test system: A/Guangzhou/GIRD/07/2009 (H1N1); experiment: microbe, parasite or virus in culture; format: cell-based; settings: Influenza A virus, H1N1, MDCK, 48 h, read-out: Activity (EC50, μM)
[2] = test system: influenza virus (A/PR/8/34)

Structure (SMILES) | MCC (minimum cytotoxic concentration) (MDCK cells) [µM] | EC50 [1] [µM] | inhibition of virus-induced aggregation of chicken erythrocytes [2]
NC12CC3CC(CC(C3)C1)C2 [Amantadine, amantadine, reference compound] | >100 | – | –
C[C@H]1[C@H](NCc2cncnc2)C[C@H]2C[C@@H]1C2(C)C [Compound 1] | >100 | > 50 | –
C[C@H]1[C@H](NCc2cnccn2)C[C@H]2C[C@@H]1C2(C)C [Compound 2] | >100 | > 50 | –
Cc1n[nH]cc1CN[C@@H]1C[C@H]2C[C@@H]([C@H]1C)C2(C)C [Compound 3] | >100 | > 50 | –
C[C@H]1[C@H](NCc2ccoc2)C[C@H]2C[C@@H]1C2(C)C [Compound 4] | >100 | – | –
C[C@H]1[C@H](NCc2ccco2)C[C@H]2C[C@@H]1C2(C)C [Compound 5] | 50 | > 50 | –
C[C@H]1[C@H](NCc2ccsc2)C[C@H]2C[C@@H]1C2(C)C [Compound 6] | 50 | – | –
C[C@H]1[C@H](NCc2cccs2)C[C@H]2C[C@@H]1C2(C)C [Compound 7] | 25 | – | –
C[C@H]1[C@H](NCc2nccs2)C[C@H]2C[C@@H]1C2(C)C [Compound 8] | >100 | > 50 | –
C[C@H]1[C@H](NCc2cncs2)C[C@H]2C[C@@H]1C2(C)C [Compound 9] | >100 | > 50 | –
Cc1csc(CN[C@@H]2C[C@H]3C[C@@H]([C@H]2C)C3(C)C)n1 [Compound 10] | >100 | – | –
Cc1ccsc1CN[C@@H]1C[C@H]2C[C@@H]([C@H]1C)C2(C)C [Compound 11] | 10 | > 0.78 | –
CCc1ccsc1CN[C@@H]1C[C@H]2C[C@@H]([C@H]1C)C2(C)C [Compound 12] | 25 | > 0.78 | –
C[C@H]1[C@H](NCc2sccc2Br)C[C@H]2C[C@@H]1C2(C)C [Compound 13] | 50 | > 0.78 | –
CCCc1ccsc1CN[C@@H]1C[C@H]2C[C@@H]([C@H]1C)C2(C)C [Compound 14] | 50 | > 0.78 | –
CCCCc1ccsc1CN[C@@H]1C[C@H]2C[C@@H]([C@H]1C)C2(C)C [Compound 15] | 25 | – | –
CCOc1ccsc1CN[C@@H]1C[C@H]2C[C@@H]([C@H]1C)C2(C)C [Compound 16] | 50 | > 0.78 | –
C=Cc1ccsc1CN[C@@H]1C[C@H]2C[C@@H]([C@H]1C)C2(C)C [Compound 17] | 50 | – | –
C[C@H]1[C@H](NCc2sccc2C2CC2)C[C@H]2C[C@@H]1C2(C)C [Compound 18] | – | – | did not inhibit
C[C@H]1[C@H](NCc2sccc2C2CCCC2)C[C@H]2C[C@@H]1C2(C)C [Compound 19] | 12.5 | – | –
C[C@H]1[C@H](NCc2sccc2C2CCCCC2)C[C@H]2C[C@@H]1C2(C)C [Compound 20] | 1.56 | > 0.78 | –

Structure (SMILES) | MCC (minimum cytotoxic concentration) (MDCK cells) [µM] | EC50 [1] [µM] | inhibition of virus-induced aggregation of chicken erythrocytes [2]
C[C@H]1[C@H](NCc2sccc2-c2ccsc2)C[C@H]2C[C@@H]1C2(C)C [Compound 21] | 12.5 | > 0.78 | –
C[C@H]1[C@H](NCc2sccc2-c2ccccc2)C[C@H]2C[C@@H]1C2(C)C [Compound 22] | 12.5 | > 0.78 | –
C[C@H]1[C@H](NCc2cc(Br)cs2)C[C@H]2C[C@@H]1C2(C)C [Compound 23] | 6.25 | – | –
Cc1csc(CN[C@@H]2C[C@H]3C[C@@H]([C@H]2C)C3(C)C)c1 [Compound 24] | 12.5 | – | –
CCc1csc(CN[C@@H]2C[C@H]3C[C@@H]([C@H]2C)C3(C)C)c1 [Compound 25] | 25 | > 0.78 | –
CCCc1csc(CN[C@@H]2C[C@H]3C[C@@H]([C@H]2C)C3(C)C)c1 [Compound 26] | 12.5 | > 0.78 | –
CCCCc1csc(CN[C@@H]2C[C@H]3C[C@@H]([C@H]2C)C3(C)C)c1 [Compound 27] | 12.5 | – | –
C=Cc1csc(CN[C@@H]2C[C@H]3C[C@@H]([C@H]2C)C3(C)C)c1 [Compound 28] | 6.25 | > 0.78 | –
C=C(C)c1csc(CN[C@@H]2C[C@H]3C[C@@H]([C@H]2C)C3(C)C)c1 [Compound 29] | 25 | > 0.78 | –
C[C@H]1[C@H](NCc2cc(C3CC3)cs2)C[C@H]2C[C@@H]1C2(C)C [Compound 30] | 25 | – | –
C[C@H]1[C@H](NCc2cc(C3CCCC3)cs2)C[C@H]2C[C@@H]1C2(C)C [Compound 31] | 1.56 | > 0.78 | –
C[C@H]1[C@H](NCc2cc(C3CCCCC3)cs2)C[C@H]2C[C@@H]1C2(C)C [Compound 32] | 0.78 | > 0.78 | –
C[C@H]1[C@H](NCc2cc(-c3ccsc3)cs2)C[C@H]2C[C@@H]1C2(C)C [Compound 33] | 25 | > 0.78 | –
C[C@H]1[C@H](NCc2cc(-c3ccccc3)cs2)C[C@H]2C[C@@H]1C2(C)C [Compound 34] | 5 | > 0.78 | –
C[C@H]1[C@H](NCc2ccc(Cl)s2)C[C@H]2C[C@@H]1C2(C)C [Compound 35] | 25 | > 0.78 | –
Cc1ccc(CN[C@@H]2C[C@H]3C[C@@H]([C@H]2C)C3(C)C)s1 [Compound 36] | 0.78 | > 0.78 | –
C[C@H]1[C@H](NCc2ccc(Br)s2)C[C@H]2C[C@@H]1C2(C)C [Compound 37] | 43 | > 0.78 | –
CCc1ccc(CN[C@@H]2C[C@H]3C[C@@H]([C@H]2C)C3(C)C)s1 [Compound 38] | 1.56 | > 0.78 | –
C[C@H]1[C@H](NCc2ccc(C(C)(C)C)s2)C[C@H]2C[C@@H]1C2(C)C [Compound 39] | 0.78 | > 0.78 | –
CSc1ccc(CN[C@@H]2C[C@H]3C[C@@H]([C@H]2C)C3(C)C)s1 [Compound 40] | 25 | > 0.78 | –
C[C@H]1[C@H](NCc2ccc(-c3ccc(Br)s3)s2)C[C@H]2C[C@@H]1C2(C)C [Compound 41] | 0.78 | > 0.78 | –
